Patent publication US20260130933A1, “PHARMACEUTICAL COMPOSITION FOR PREVENTION OR TREATMENT OF NEPHROPATHY AND/OR DIABETES MELLITUS, COMPRISING ENAVOGLIFLOZIN” (DAEWOONG PHARMACEUTICAL CO., LTD., priority 2022, published 2026)

Test: Example 2: phase 3 trial, enavogliflozin 0.3 mg vs dapagliflozin 10 mg once a day for 24 weeks added to metformin in patients with type 2 diabetes (same efficacy, exploratory and safety endpoints)
Assay type: in vivo, human
Description: Subjects who met the inclusion/exclusion criteria were administered a placebo of the clinical trial drug under single-blind (subject blinding) conditions during a 2-week run-in period while continuing to receive metformin. […] The randomized subjects were administered two tablets of the clinical trial drug for each administration group once a day, and then visited the institution at weeks 6, 12, 18, and 24 during the 24-week administration period to conduct efficacy and safety evaluations.
• 1. Change in HbA1c at week 24 after administration of clinical trial drug compared to Visit 2 (randomization)
• 1. Change in HbA1c at each time point of weeks 6, 12, and 18 after administration of clinical trial drug compared to Visit 2 (randomization) • 2. Change in FPG at each time point of weeks 6, 12, 18, and 24 after administration of clinical trial drug compared to Visit 2 (randomization) • 3. Proportion of subjects achieving HbA1c<7% at each time point of weeks 6, 12, 18, and 24 after administration of clinical trial drug • 4. Proportion of subjects achieving HbA1c<6.5% at each time point of weeks 6, 12, 18, and 24 after administration of clinical trial drug • 5. Proportion of subjects achieving therapeutic response (HbA1c change (HbA1c at Visit 2-HbA1c at each evaluation time point)>0.5% or HbA1c<7% at each evaluation time point compared to Visit 2 (randomization)) at each time point of weeks 6, 12, 18 and 24 after administration of clinical trial drug
• 1. Change in fasting c-peptide at each time point of weeks 6, 12, 18, and 24 after administration of clinical trial drug compared to Visit 2 (randomization) • 2. Change in body weight at each time point of weeks 6, 12, 18, and 24 after administration of clinical trial drug compared to Visit 2 (randomization) • 3. Change in fasting lipid concentration (total cholesterol, LDL-C, HDL-C, and triglycerides) at each time point of weeks 6, 12, 18, and 24 after administration of clinical trial drug compared to Visit 2 (randomization) • 4. Changes in systolic or diastolic blood pressure at each time point of weeks 6, 12, 18, and 24 after administration of clinical trial drug compared to Visit 2 (randomization) • 5. Changes in β-cell function and insulin resistance measured by HOMA-β and HOMA-IR at each time point of weeks 6, 12, 18, and 24 after administration of clinical trial drug compared to Visit 2 (randomization) • 6. Changes in renal function-related indicators (UACR, UGCR) measured by UACR at each time point of weeks 6, 12, 18, and 24 after administration of clinical trial drug compared to Visit 2 (randomization) • 7. Changes in obesity-related indicators (adiponectin, leptin) at each time point of weeks 6, 12, 18, and 24 after administration of clinical trial drug compared to Visit 2 (randomization)

[1] = Week 18, mPPS1, enavogliflozin minus dapagliflozin
[2] = Week 18, mPPS2, enavogliflozin minus dapagliflozin
[3] = Week 24, PPS, enavogliflozin minus dapagliflozin

OC[C@H]1O[C@@H](c2cc(Cc3ccc(C4CC4)cc3)c(Cl)c3c2CCO3)[C@H](O)[C@@H](O)[C@@H]1O [Enavogliflozin, (2S,3R,4R,5S,6R)-2-(7-chloro-6 (4-cyclopropylbenzyl)-2,3-dihydrobenzofuran-4-yl)-6-(hydroxymethyl)tetrahydro-2H-pyran-3,4,5-triol]
LDL-C, Mean (SD) (Week 18, mPPS1): 85.75(29.78) mg/dL | LDL-C, Median (Week 18, mPPS1): 77.50 mg/dL | Triglycerides change from baseline, ANCOVA LS mean (SE) (Week 18, mPPS1): −4.99(5.99) mg/dL | Triglycerides change from baseline, Mean (SD) (Week 18, mPPS1): −2.70(78.86) mg/dL | Triglycerides change from baseline, Median (Week 18, mPPS1): -2.50 mg/dL | Triglycerides, Mean (SD) (Week 18, mPPS1): 118.10(55.93) mg/dL | Triglycerides, Median (Week 18, mPPS1): 108.00 mg/dL | HDL-C change from baseline, LS mean difference [1]: -0.62 mg/dL | LDL-C change from baseline, LS mean difference [1]: -1.15 mg/dL | triglycerides change from baseline, LS mean difference [1]: -6.87 mg/dL | Diastolic blood pressure change from baseline, ANCOVA LS mean (SE) (Week 18, mPPS2): −4.80 mmHg | Diastolic blood pressure change from baseline, Mean (SD) (Week 18, mPPS2): −5.05 mmHg | Diastolic blood pressure change from baseline, Median (Week 18, mPPS2): −5.00 mmHg | Diastolic blood pressure, Mean (SD) (Week 18, mPPS2): 71.85 mmHg | Diastolic blood pressure, Median (Week 18, mPPS2): 71.00 mmHg | Systolic blood pressure change from baseline, ANCOVA LS mean (SE) (Week 18, mPPS2): −6.69(1.12) mmHg | Systolic blood pressure change from baseline, Mean (SD) (Week 18, mPPS2): −7.04(10.51) mmHg | Systolic blood pressure change from baseline, Median (Week 18, mPPS2): −9.00 mmHg | Systolic blood pressure, Mean (SD) (Week 18, mPPS2): 122.70(12.89) mmHg | Systolic blood pressure, Median (Week 18, mPPS2): 122.00 mmHg | diastolic blood pressure change from baseline, LS mean difference [2]: −0.70 mmHg | systolic blood pressure change from baseline, LS mean difference [2]: −0.72 mmHg | Adiponectin change from baseline, ANCOVA LS mean (SE) (Week 24, PPS): 1.67 µg/mL | Adiponectin change from baseline, Mean (SD) (Week 24, PPS): 1.72 µg/mL | Adiponectin change from baseline, Median (Week 24, PPS): 1.21 µg/mL | Adiponectin, Mean (SD) (Week 24, PPS): 8.68 µg/mL | Adiponectin, Median (Week 24, PPS): 7.64 µg/mL | HOMA-IR change from baseline, ANCOVA LS mean (SE) (Week 24, PPS): −1.85 | HOMA-IR change from baseline, Mean (SD) (Week 24, PPS): −1.69 | HOMA-IR change from baseline, Median (Week 24, PPS): −1.06 | HOMA-IR, Mean (SD) (Week 24, PPS): 1.76 | HOMA-IR, Median (Week 24, PPS): 1.48 | HOMA-β change from baseline, ANCOVA LS mean (SE) (Week 24, PPS): 6.94 | HOMA-β change from baseline, Mean (SD) (Week 24, PPS): 6.80 | HOMA-β change from baseline, Median (Week 24, PPS): 4.00 | HOMA-β, Mean (SD) (Week 24, PPS): 52.32 | HOMA-β, Median (Week 24, PPS): 42.00 | Leptin change from baseline, ANCOVA LS mean (SE) (Week 24, PPS): -2.40 ng/mL | Leptin change from baseline, Mean (SD) (Week 24, PPS): -2.53 ng/mL | Leptin change from baseline, Median (Week 24, PPS): -1.77 ng/mL | Leptin, Mean (SD) (Week 24, PPS): 9.68 ng/mL | Leptin, Median (Week 24, PPS): 7.45 ng/mL | UACR change from baseline, ANCOVA LS mean (SE) (Week 24, PPS): -24.29 g/kg | UACR change from baseline, Mean (SD) (Week 24, PPS): -18270 mg/kg | UACR change from baseline, Median (Week 24, PPS): -1.10 g/kg | UACR, Mean (SD) (Week 24, PPS): 19930 mg/kg | UACR, Median (Week 24, PPS): 10.20 g/kg | UGCR change from baseline, ANCOVA LS mean (SE) (Week 24, PPS): 60.48 mg/mg | UGCR change from baseline, Mean (SD) (Week 24, PPS): 58.90 mg/mg | UGCR change from baseline, Median (Week 24, PPS): 56.43 mg/mg | UGCR, Mean (SD) (Week 24, PPS): 60.43 mg/mg | UGCR, Median (Week 24, PPS): 57.88 mg/mg | HOMA-IR change from baseline, LS mean difference [3]: −0.53 | HOMA-β change from baseline, LS mean difference [3]: −4.99 | UACR change from baseline, LS mean difference [3]: -6.93 g/kg | UGCR change from baseline, LS mean difference [3]: 15.54 mg/mg | leptin change from baseline, LS mean difference [3]: -1.12 ng/mL | HDL-C change from baseline, ANCOVA LS mean (SE) (Week 24, mPPS1): 3.06(0.64) mg/dL | HDL-C change from baseline, Mean (SD) (Week 24, mPPS1): 2.75(6.70) mg/dL | HDL-C change from baseline, Median (Week 24, mPPS1): 3.00 mg/dL | HDL-C, Mean (SD) (Week 24, mPPS1): 53.69(10.72) mg/dL | HDL-C, Median (Week 24, mPPS1): 53.00 mg/dL | LDL-C change from baseline, ANCOVA LS mean (SE) (Week 24, mPPS1): 1.64(1.92) mg/dL | LDL-C change from baseline, Mean (SD) (Week 24, mPPS1): 0.88(17.04) mg/dL | LDL-C change from baseline, Median (Week 24, mPPS1): 3.00 mg/dL | LDL-C, Mean (SD) (Week 24, mPPS1): 87.40(29.52) mg/dL | LDL-C, Median (Week 24, mPPS1): 84.00 mg/dL | Triglycerides change from baseline, ANCOVA LS mean (SE) (Week 24, mPPS1): −5.07(5.14) mg/dL | Triglycerides change from baseline, Mean (SD) (Week 24, mPPS1): −2.47(76.88) mg/dL | Triglycerides change from baseline, Median (Week 24, mPPS1): 0.00 mg/dL
